{"source": "paper PMC8964029", "about": "(Pharmaceutical Research, 2022)", "key": {"[1]": {"assay": "Treatment-related adverse events graded according to CTCAE version 5.0", "format": "in vivo, human", "conditions": "nine patients"}, "[2]": {"conditions": "cited from earlier work"}, "[3]": {"conditions": "healthy volunteers, co-administration of ketoconazole; cited from earlier work"}, "[4]": {"tested_on": "CYP3A4", "conditions": "remaining part by CYP1A2; cited from earlier work"}, "[5]": {"format": "in vivo, human", "conditions": "for Cmin (trough concentration) / Cmax / AUC0-24h: steady state, geometric mean (CV%); for AUC0-24h, ratio of geometric mean (95% CI) / Cmax, ratio of geometric mean (95% CI) / Cmin, ratio of geometric mean (95% CI): erlotinib 75 mg QD + ritonavir 200 mg QD versus erlotinib monotherapy 150 mg QD"}, "[6]": {"conditions": "erlotinib 75 mg QD + ritonavir 200 mg QD"}, "[7]": {"conditions": "erlotinib monotherapy 150 mg QD"}, "[8]": {"conditions": "plasma, erlotinib 75 mg QD + ritonavir 200 mg QD"}, "[9]": {"conditions": "plasma, erlotinib monotherapy 150 mg QD"}, "[10]": {"conditions": "versus erlotinib monotherapy, result in words"}}, "note": "Read-outs that look alike come from different tables or passages of the source."}
{"molecule": "C#Cc1cccc(Nc2ncnc3cc(OCCOC)c(OCCOC)cc23)c1", "note": "[Erlotinib, erlotinib]", "values": [{"measurement": "Patients experiencing treatment-related adverse events", "setting": "[1]; combination of erlotinib with ritonavir", "result": 56, "unit": "%"}, {"measurement": "Diarrhea grade 1 or 2, number of patients", "setting": "[1]; [6]", "result": 2}, {"measurement": "Diarrhea ≥ grade 3, number of patients", "setting": "[1]; [6]", "result": 0}, {"measurement": "Nausea grade 1 or 2, number of patients", "setting": "[1]; [6]", "result": 2}, {"measurement": "Nausea ≥ grade 3, number of patients", "setting": "[1]; [6]", "result": 0}, {"measurement": "Number of patients experiencing any AE", "setting": "[1]; [6]", "result": 5}, {"measurement": "Skin rash grade 1 or 2, number of patients", "setting": "[1]; [6]", "result": 1}, {"measurement": "Skin rash ≥ grade 3, number of patients", "setting": "[1]; [6]", "result": 0}, {"measurement": "Diarrhea grade 1 or 2, number of patients", "setting": "[1]; [7]", "result": 2}, {"measurement": "Diarrhea ≥ grade 3, number of patients", "setting": "[1]; [7]", "result": 0}, {"measurement": "Nausea grade 1 or 2, number of patients", "setting": "[1]; [7]", "result": 0}, {"measurement": "Nausea ≥ grade 3, number of patients", "setting": "[1]; [7]", "result": 0}, {"measurement": "Number of patients experiencing any AE", "setting": "[1]; [7]", "result": 4}, {"measurement": "Skin rash grade 1 or 2, number of patients", "setting": "[1]; [7]", "result": 3}, {"measurement": "Skin rash ≥ grade 3, number of patients", "setting": "[1]; [7]", "result": 0}, {"measurement": "Patients with a treatment-related adverse event", "setting": "[1]; monotherapy erlotinib", "result": 44, "unit": "%"}, {"measurement": "elimination half-life", "setting": "[2]", "result": "approximately 36 h"}, {"measurement": "Increase of AUC0-∞ of erlotinib by ketoconazole", "setting": "[3]", "result": "approximately a twofold"}, {"measurement": "Increase of Cmax of erlotinib by ketoconazole", "setting": "[3]", "result": "approximately a twofold"}, {"measurement": "Share of erlotinib metabolized by CYP3A4", "setting": "[4]", "result": "approximately 70%"}, {"measurement": "AUC(0-t)", "setting": "[5]; human, plasma, oral, 150 mg", "result": 29300, "unit": "ng·h/mL"}, {"measurement": "Cmin (trough concentration)", "setting": "[5]; [8]", "result": "1.06 (165%) μg/mL"}, {"measurement": "Cmin (trough concentration)", "setting": "[5]; plasma, erlotinib 75 mg QD + ritonavir 200 mg QD, listed as erlotinib", "result": 1.06, "unit": "µg/mL"}, {"measurement": "Cmax", "setting": "[5]; [9]", "result": "1.84 (60%) μg/mL"}, {"measurement": "Cmin (trough concentration)", "setting": "[5]; [9]", "result": "1.00 (62%) μg/mL"}]}
{"molecule": "C#Cc1cccc(Nc2ncnc3cc(OCCO)c(OCCOC)cc23)c1", "note": "[OSI-413]", "values": [{"measurement": "AUC0-24h, ratio of geometric mean (95% CI)", "setting": "[5]", "result": "0.53 (0.34 – 0.83)"}, {"measurement": "Cmax, ratio of geometric mean (95% CI)", "setting": "[5]", "result": "0.48 (0.31 – 0.76)"}, {"measurement": "Cmin, ratio of geometric mean (95% CI)", "setting": "[5]", "result": "0.59 (0.37 – 0.94)"}, {"measurement": "Cmax", "setting": "[5]; [8]", "result": "43.7 (134%) ng/mL"}, {"measurement": "Cmin (trough concentration)", "setting": "[5]; [8]", "result": "29.4 (263%) ng/mL"}, {"measurement": "AUC0-24h", "setting": "[5]; plasma, erlotinib 75 mg QD + ritonavir 200 mg QD, nine patients", "result": "0.823 (174%) μg*h/mL"}, {"measurement": "Cmax", "setting": "[5]; [9]", "result": "90.0 (107%) ng/mL"}, {"measurement": "Cmin (trough concentration)", "setting": "[5]; [9]", "result": "49.5 (152%) ng/mL"}, {"measurement": "AUC0-24h", "setting": "[5]; plasma, erlotinib monotherapy 150 mg QD, nine patients", "result": "1.55 (120%) μg*h/mL"}, {"measurement": "Change in AUC0-24h following the combination of erlotinib and ritonavir", "setting": "[5]; [10]", "result": "statistically significant decrease"}, {"measurement": "Change in Cmax following the combination of erlotinib and ritonavir", "setting": "[5]; [10]", "result": "statistically significant decrease"}]}
{"molecule": "OSI-420", "values": [{"measurement": "AUC0-24h, ratio of geometric mean (95% CI)", "setting": "[5]", "result": "0.31 (0.15 – 0.62)"}, {"measurement": "Cmax, ratio of geometric mean (95% CI)", "setting": "[5]", "result": "0.28 (0.13 – 0.57)"}, {"measurement": "Cmin, ratio of geometric mean (95% CI)", "setting": "[5]", "result": "0.41 (0.22 – 0.76)"}, {"measurement": "AUC0-24h", "setting": "[5]; [8]", "result": "118 (351%) ng*h/mL"}, {"measurement": "Cmax", "setting": "[5]; [8]", "result": "7.24 (230%) ng/mL"}, {"measurement": "Cmin (trough concentration)", "setting": "[5]; [8]", "result": "4.34 (443%) ng/mL"}, {"measurement": "AUC0-24h", "setting": "[5]; [9]", "result": "380 (144%) ng*h/mL"}, {"measurement": "Cmax", "setting": "[5]; [9]", "result": "26.1 (141%) ng/mL"}, {"measurement": "Cmin (trough concentration)", "setting": "[5]; [9]", "result": "10.5 (162%) ng/mL"}, {"measurement": "Change in AUC0-24h following the combination of erlotinib and ritonavir", "setting": "[5]; [10]", "result": "statistically significant decrease"}, {"measurement": "Change in Cmax following the combination of erlotinib and ritonavir", "setting": "[5]; [10]", "result": "statistically significant decrease"}, {"measurement": "Change in Cmin following the combination of erlotinib and ritonavir", "setting": "[5]; [10]", "result": "statistically significant decrease"}]}
{"molecule": "CC(C)c1nc(CN(C)C(=O)N[C@H](C(=O)N[C@@H](Cc2ccccc2)C[C@H](O)[C@H](Cc2ccccc2)NC(=O)OCc2cncs2)C(C)C)cs1", "note": "[Ritonavir, ritonavir]", "values": [{"measurement": "Cmin (trough concentration)", "setting": "[5]; [8]", "result": "0.243 (129%) μg/mL"}]}
